Consider 32 compounds from ChEMBL document CHEMBL3612024, “Synthesis of five and six-membered heterocycles bearing an arylpiperazinylalkyl side chain as orally active antinociceptive agents” (2015).

What all share (details): Abdomen
In assay [1] the test system is Mus musculus. Put plainly: Antinociceptive activity in Swiss albino mouse assessed as inhibition of acetic acid-induced abdominal constriction at 20 mg/kg, po administered 30 mins prior to testing measured for 10 mins starting 5 mins after acetic acid injection in presence of alpha-2 adrenergic receptor antagonist yohimbine. In kind it is functional, organism-based.

Assay [2] concerns Mus musculus. The assay can be described thus: Antinociceptive activity in Swiss albino mouse assessed as inhibition of acetic acid-induced abdominal constriction at 40 mg/kg, po administered 30 mins prior to testing measured for 10 mins starting 5 mins after acetic acid injection relative to control. In kind it is functional.
In assay [3] the test system is Mus musculus. Put plainly: Antinociceptive activity in Swiss albino mouse assessed as inhibition of acetic acid-induced abdominal constriction at 10 mg/kg, po administered 30 mins prior to testing measured for 10 mins starting 5 mins after acetic acid injection relative to control. It is filed as functional.
Assay [4] deals with Mus musculus. Put plainly: Antinociceptive activity in Swiss albino mouse assessed as inhibition of acetic acid-induced abdominal constriction at 20 mg/kg, po administered 30 mins prior to testing measured for 10 mins starting 5 mins after acetic acid injection relative to control. It is filed as functional.
In assay [5] the test system is Mus musculus. The assay can be described thus: Antinociceptive activity in Swiss albino mouse assessed as inhibition of acetic acid-induced abdominal constriction at 30 mg/kg, po administered 30 mins prior to testing measured for 10 mins starting 5 mins after acetic acid injection in presence of alpha-2 adrenergic receptor antagonist yohimbine. It is filed as functional, organism-based.

Assay [6] concerns Mus musculus. Put plainly: Antinociceptive activity in Swiss albino mouse assessed as inhibition of acetic acid-induced abdominal constriction at 30 mg/kg, po administered 30 mins prior to testing measured for 10 mins starting 5 mins after acetic acid injection relative to control. It is filed as functional.
Assay [7] concerns Mus musculus. Put plainly: Antinociceptive activity in Swiss albino mouse assessed as inhibition of acetic acid-induced abdominal constriction at 40 mg/kg, po administered 30 mins prior to testing measured for 10 mins starting 5 mins after acetic acid injection in presence of alpha-2 adrenergic receptor antagonist yohimbine. It is filed as functional, organism-based.
Assay [8] concerns Mus musculus. The assay can be described thus: Antinociceptive activity in Swiss albino mouse assessed as inhibition of acetic acid-induced abdominal constriction at 80 mg/kg, po administered 30 mins prior to testing measured for 10 mins starting 5 mins after acetic acid injection relative to control. It is filed as functional.

The structures appear in SMILES notation. Activity calls are given as the source filed them. The calls are words filed in the database; no cut-off is given here.

By inhibition in vivo is commonly meant the percentage by which the read-out fell short of the control.

In the case of `C=Cc1c(CCCC)nn(CCCN2CCN(c3ccc(C)cc3)CC2)c(=O)c1N`, the inhibition entry in assay [1] was “inactive”. The inhibition in vivo at 40 mg/kg in assay [2] stood at 48%. Further, in assay [3], the inhibition in vivo at 10 mg/kg amounted to 0%. Further, in assay [4], the inhibition in vivo at 20 mg/kg turned out to be 41%.
For the compound `CCc1c(C)nn(CCCN2CCN(c3ccc(C)cc3)CC2)c(=O)c1N`, the inhibition result in assay [5] is “inactive”. In assay [6], the inhibition in vivo at 30 mg/kg is 45%. The inhibition in vivo at 10 mg/kg in assay [3] was 23%.
Take `C=Cc1c(C)nn(CCCCN2CCN(c3ccccc3OCC)CC2)c(=O)c1N`: the inhibition entry in assay [6] and in assay [3] was “inactive” in each case.
As for `C=Cc1c(C)nn(CCCN2CCN(c3ccc(F)cc3)CC2)c(=O)c1N`, the inhibition entry in assay [5] is “inactive”. Moreover, in assay [6], the inhibition in vivo at 30 mg/kg was determined as 28%. Moreover, the inhibition in vivo at 10 mg/kg in assay [3] turned out to be 0%.
With `O=c1occ(-c2ccccc2)n1CCCN1CCN(c2cccc(Cl)c2)CC1`, in assay [1], the inhibition entry was “inactive”. Moreover, in assay [2], the inhibition in vivo at 40 mg/kg worked out at 38%. Also, the inhibition in vivo at 10 mg/kg in assay [3] worked out at 7%. Further, the inhibition in vivo at 20 mg/kg in assay [4] was determined as 31%.
`C=Cc1c(C)nn(CCCN2CCCN(c3ccc(C)cc3)CC2)c(=O)c1N`: the inhibition in vivo at 40 mg/kg in assay [2] was found to be 31%. In assay [3], the inhibition in vivo at 10 mg/kg was 0%. Further, the inhibition result in assay [7] is “inactive”. For the same compound, the inhibition in vivo at 20 mg/kg in assay [4] is 10%.
For the compound `C=Cc1c(C)nn(CCCCN2CCN(c3ccc(C)cc3)CC2)c(=O)c1N`, the inhibition entry in assay [5] is “inactive”. The inhibition in vivo at 30 mg/kg in assay [6] worked out at 42%. Besides, in assay [3], the inhibition in vivo at 10 mg/kg is 3%.
As to `C=Cc1c(CCC)nn(CCCN2CCN(c3ccc(C)cc3)CC2)c(=O)c1N`, the inhibition in vivo at 40 mg/kg in assay [2] was 22%. Also, the inhibition in vivo at 10 mg/kg in assay [3] turned out to be 3%. In assay [7], the inhibition entry was “inactive”. In assay [4], the inhibition in vivo at 20 mg/kg amounted to 7%.
Turning to `Cc1ccc(N2CCN(CCCn3nc(-c4ccccc4)c(C#N)c3C)CC2)cc1`, the inhibition result in assay [1] is “inactive”. In addition, the inhibition in vivo at 40 mg/kg in assay [2] amounted to 30%. Moreover, in assay [3], the inhibition in vivo at 10 mg/kg was found to be 0%. The inhibition in vivo at 20 mg/kg in assay [4] was 8%.
In the case of `CC(=O)c1c(C)nn(CCCN2CCN(c3ccc(C)cc3)CC2)c(=O)c1N`, the inhibition result in assay [5] was “inactive”. Also, the inhibition in vivo at 30 mg/kg in assay [6] was determined as 46%. In addition, the inhibition in vivo at 10 mg/kg in assay [3] was 19%.
`CCC(=O)c1c(C)nn(CCCN2CCN(c3ccc(C)cc3)CC2)c(=O)c1N`: the inhibition entry in assay [1] is “inactive”. Further, the inhibition in vivo at 40 mg/kg in assay [2] came to 29%. Besides, in assay [3], the inhibition in vivo at 10 mg/kg is 9%. The inhibition in vivo at 20 mg/kg in assay [4] came to 40%.
With `C=Cc1c(C)nn(CCCN2CCN(c3ccc(C)cc3)CC2)c(=O)c1N`, the inhibition in vivo at 40 mg/kg in assay [2] worked out at 65%. Moreover, the inhibition in vivo at 30 mg/kg in assay [6] is 59%. Moreover, in assay [3], the inhibition in vivo at 10 mg/kg was 33%. Moreover, the inhibition result in assay [7] was “inactive”.
With `C=Cc1c(C)nn(CC(C)CN2CCN(c3ccc(C)cc3)CC2)c(=O)c1N` (configuration not stated), in assay [5], the inhibition entry is “inactive”. In addition, the inhibition in vivo at 30 mg/kg in assay [6] is 47%. The inhibition in vivo at 10 mg/kg in assay [3] is 17%.
As for `CC(=O)c1cccn1CCCN1CCN(c2ccc(F)cc2)CC1`, the inhibition in vivo at 40 mg/kg in assay [2] was 38%. The inhibition in vivo at 10 mg/kg in assay [3] stood at 0%. Further, the inhibition result in assay [7] was “inactive”. The inhibition in vivo at 20 mg/kg in assay [4] was 16%.
For `COc1cccc(N2CCN(CCCn3nc(-c4ccccc4)c(C#N)c3C)CC2)c1`, in assay [1], the inhibition result is “inactive”. Moreover, the inhibition in vivo at 40 mg/kg in assay [2] came to 34%. Moreover, the inhibition in vivo at 10 mg/kg in assay [3] was determined as 0%. Further, in assay [4], the inhibition in vivo at 20 mg/kg was determined as 21%.
Turning to `C=Cc1c(CC)nn(CCCN2CCN(c3ccc(C)cc3)CC2)c(=O)c1N`, in assay [2], the inhibition in vivo at 40 mg/kg was 28%. The inhibition in vivo at 10 mg/kg in assay [3] came out at 0%. Moreover, the inhibition entry in assay [7] is “inactive”. For the same compound, in assay [4], the inhibition in vivo at 20 mg/kg is 0%.
For `CCc1nn(CCCN2CCN(c3ccc(C)cc3)CC2)c(=O)c(N)c1C(C)=O`, in assay [1], the inhibition entry is “inactive”. Moreover, the inhibition in vivo at 40 mg/kg in assay [2] turned out to be 41%. Also, the inhibition in vivo at 10 mg/kg in assay [3] was 10%. In addition, the inhibition in vivo at 20 mg/kg in assay [4] was found to be 42%.
Take `COc1cccc(N2CCN(CCCn3cccc3C(C)=O)CC2)c1`: the inhibition in vivo at 40 mg/kg in assay [2] was found to be 52%. Further, in assay [3], the inhibition in vivo at 10 mg/kg is 0%. The inhibition result in assay [7] is “inactive”. For the same compound, the inhibition in vivo at 20 mg/kg in assay [4] turned out to be 26%.
For `COc1cccc(N2CCN(CCCn3c(-c4ccccc4)coc3=O)CC2)c1`, the inhibition result in assay [1] is “inactive”. The inhibition in vivo at 40 mg/kg in assay [2] was found to be 39%. Moreover, the inhibition in vivo at 10 mg/kg in assay [3] was found to be 8%. Also, the inhibition in vivo at 20 mg/kg in assay [4] came out at 25%.
As to `CC(=O)c1cccn1CCCN1CCN(c2cccc(Cl)c2)CC1`, in assay [1], the inhibition entry is “inactive”. Moreover, the inhibition in vivo at 40 mg/kg in assay [2] was 54%. The inhibition in vivo at 10 mg/kg in assay [3] worked out at 3%. Also, the inhibition in vivo at 20 mg/kg in assay [4] is 41%.
Taken in the same sequence, the figures for `CCCCC(=O)c1c(C)nn(CCCN2CCN(c3ccc(C)cc3)CC2)c(=O)c1N` were “inactive”, 15%, 8% and 23%.
Consider `O=c1occ(-c2ccccc2)n1CCCN1CCN(c2ccc(F)cc2)CC1`, for which the inhibition in vivo at 40 mg/kg in assay [2] is 34%. In addition, the inhibition in vivo at 10 mg/kg in assay [3] worked out at 14%. The inhibition entry in assay [7] is “inactive”. Also, the inhibition in vivo at 20 mg/kg in assay [4] turned out to be 12%.
As for `CC/C=C/c1c(C)nn(CCCN2CCN(c3ccc(C)cc3)CC2)c(=O)c1N`, the inhibition result in assay [1] was “inactive”. For the same compound, in assay [2], the inhibition in vivo at 40 mg/kg came to 45%. For the same compound, the inhibition in vivo at 10 mg/kg in assay [3] was found to be 5%. Besides, the inhibition in vivo at 20 mg/kg in assay [4] worked out at 35%.
In the case of `Cc1c(C#N)c(-c2ccccc2)nn1CCCN1CCN(c2ccc([N+](=O)[O-])cc2)CC1`, the inhibition in vivo at 40 mg/kg in assay [2] is 49%. In addition, the inhibition in vivo at 10 mg/kg in assay [3] turned out to be 0%. The inhibition entry in assay [7] was “inactive”. Moreover, in assay [4], the inhibition in vivo at 20 mg/kg was 21%.
For the compound `C=Cc1c(C)nn(CCCN2CCN(C(=O)c3ccc(Cl)c(F)c3)CC2)c(=O)c1N`, the inhibition entry in assay [6] and in assay [3] was “inactive” in each case.
Take `CC(=O)c1cccn1CCCN1CCN(c2ccc(C)cc2)CC1`: the inhibition in vivo at 80 mg/kg in assay [8] turned out to be 4%. Further, the inhibition in vivo at 40 mg/kg in assay [2] was determined as 9%. The inhibition in vivo at 10 mg/kg in assay [3] stood at 12%. The inhibition in vivo at 20 mg/kg in assay [4] was 7%.
Consider `C/C=C/c1c(C)nn(CCCN2CCN(c3ccc(C)cc3)CC2)c(=O)c1N`, for which the inhibition result in assay [1] was “inactive”. For the same compound, the inhibition in vivo at 40 mg/kg in assay [2] amounted to 63%. The inhibition in vivo at 10 mg/kg in assay [3] turned out to be 0%. The inhibition in vivo at 20 mg/kg in assay [4] was 44%.
With `CCCC(=O)c1c(C)nn(CCCN2CCN(c3ccc(C)cc3)CC2)c(=O)c1N`, the inhibition entry in assay [1] is “inactive”. Also, in assay [2], the inhibition in vivo at 40 mg/kg is 32%. The inhibition in vivo at 10 mg/kg in assay [3] was found to be 0%. For the same compound, in assay [4], the inhibition in vivo at 20 mg/kg amounted to 25%.
`Cc1c(C#N)c(-c2ccccc2)nn1CCCN1CCN(c2cccc(Cl)c2)CC1`: the inhibition in vivo at 40 mg/kg in assay [2] came out at 23%. Further, the inhibition result in assay [7] is “inactive”. Also, the inhibition in vivo at 20 mg/kg in assay [4] stood at 0%.
On to `Cc1c(C#N)c(-c2ccccc2)nn1CCCN1CCN(c2ccc(F)cc2)CC1`, for which the inhibition in vivo at 40 mg/kg in assay [2] came out at 51%. In assay [3], the inhibition in vivo at 10 mg/kg stood at 9%. In addition, the inhibition result in assay [7] is “inactive”. For the same compound, in assay [4], the inhibition in vivo at 20 mg/kg was found to be 28%.
For `CCC/C=C/c1c(C)nn(CCCN2CCN(c3ccc(C)cc3)CC2)c(=O)c1N` the same measures were 36%, 0%, “inactive” and 16%.
For the compound `CC(=O)c1cccn1CCCN1CCN(c2ccc([N+](=O)[O-])cc2)CC1`, the inhibition in vivo at 80 mg/kg in assay [8] came to 9%. In addition, in assay [2], the inhibition in vivo at 40 mg/kg was 0%. Further, the inhibition in vivo at 20 mg/kg in assay [4] is 11%.
